Reference: patent US20230123497A1, “NOVEL ANTIBACTERIAL HYDROGELS” (NewSouth Innovations Pty Limited, priority 2020, published 2023)
Where “and” joins values, the source holds several entries; their conditions need not be identical. Identical values can stand only once.

Legend:
[1] = Hydrogel formation, vial inversion test (critical gel concentration); assay type: physicochemical; set-up: key: CG: clear gel; PG: partial gel; OG: opagque gel; conditions: cationic peptides 15-19
Description: (§1) The simplest method to determine whether a suitable hydrogel has formed is to use the vial inversion test. Through visual inspection, a material can be categorised as a solution, viscous solution, partial gel, or solid-like gel. A stable hydrogel needs to be able to hold its weight and/or maintain its shape during this assessment.
(§2) The critical gel concentration (CGC) is defined as the minimum mass of a short peptide required to provide a self-supporting hydrogel per unit volume in the vial inversion test (measured as % w/v).
(§3) Pre-weighed samples of short peptide 4 were prepared in aluminium-covered glass vials and Milli-Q water and 2 equivalents of NaOH (1.0 M) were added to make up concentrations of 1% w/v. The resulting suspensions were vortexed for 5 minutes to provide clear yellow solutions with pH 11.
To create a high ionic strength environment, 1 equivalent of NaCl was added and the vial was left to stand without disturbance for 3 hours at room temperature. Meanwhile, as an attempt to form a hydrogel by lowering the pH, 2 equivalents of GdL were added to a high pH solution of 4 followed by gentle mixing. These vials were inverted and allowed to stand overnight to confirm the hydrogel formation. […]

[2] = as above; assay type: physicochemical; conditions: for CGC: triggers GdL; for Remarks (gel state): vial inversion test
Description: as §1, §2, §3
(§4) To create a high ionic strength environment, 1 equivalent of NaCl was added and the vial was left to stand without disturbance for 3 hours at room temperature. Meanwhile, as an attempt to form a hydrogel by lowering the pH, 2 equivalents of GdL were added to a high pH solution of 4 followed by gentle mixing. These vials were inverted and allowed to stand overnight to confirm the hydrogel formation.
(§5) The formation of hydrogel 4 via the solvent switch method was conducted by dissolving short peptide 4, in an aluminium covered glass vial, with either 50% methanol, ethanol, or dimethyl sulfoxide (DMSO). Respective amounts of Mili-Q water were added to make up concentrations of 1% w/v.
(§6) In addition, gelation time was defined as the time (hours) required for 1% w/v of short peptide 4 to form a hydrogel which can be turned upside down without collapsing.
(§7) Pre-weighed samples of short peptides 10a-17a, 18, and 19 were prepared in glass vials with 10 mm internal diameter, and Milli-Q water was added to make up concentrations of 1% w/v. The resulting suspensions of short peptides 13, 18, and 19 (as ammonium or guanidinium salts) were slowly warmed until all solid had completely dissolved. GdL (1.5 to 2.0 equivalents) was added to the suspension of short peptides 10a-17a, before heat was applied. To create a high ionic strength environment, 1-5 equivalents of NaCl was added to the viscous solution of 10a-17a to make the total volume up to 1 mL, followed by gentle mixing, and the vial was left to stand without disturbance for 3 hours at room temperature. Subsequently, these vials were inverted and allowed to stand overnight to confirm hydrogel formation.

[3] = Frequency sweep test (FST), rheometer; assay type: physicochemical; conditions: for G′ (modulus storage) / G″ (modulus loss): FST fixed strain 0.1%
Protocol: The mechanical properties of anthranilamide-based cationic hydrogels were assessed using an Anton Paar MCR 302 rheometer with a 25 mm stainless parallel plate configuration.
(§8) Initially, 1 mL of hydrogels were prepared from short peptides 11-13 and 15-19 in glass vials at concentration of 1% w/v. These vials were warmed using a heat gun to transform the hydrogel to the solution phase. Subsequently, 560 μL of the resulting solutions were cast onto the rheometer plate. The other plate was lowered to the measuring position ([…]) and the hydrogel was allowed to stand for 3 hours for the gel to form. The FST was conducted at fixed strain of 0.1% and frequency ranging from 10 Hz to 0.01 Hz. Meanwhile, the strain sweep test (SST) was performed at a frequency of 1 Hz using 0.1% strain to 100% strain. The rheology data were shown as the average of three repeats for each data point.
(§9) The mechanical properties of hydrogels 4 (formed via addition of NaCl or GdL) before and after blue light irradiation were also assessed using an Anton Paar MCR 302 rheometer with a 25 mm stainless parallel plate configuration. Prior to the hydrogel formation, 560 μL of solution phase of short peptide 4 at 1% w/v were transferred onto a rheometer plate. Meanwhile, hydrogel 4, which had been exposed to blue light, was warmed using a heat gun, to provide its solution phase. Subsequently, 560 μL of this solution phase was cast onto the rheometer plate. The other plate was lowered to the measuring position ([…]) and the hydrogel was allowed to stand for 3 hours for the gel to form. The frequency sweep test (FST) was conducted at fixed strain of 0.1% and frequency ranging from 10 Hz to 0.01 Hz. Meanwhile, the SST was performed at a frequency of 1 Hz using 0.1% strain to 100% strain. In addition, the temperature sweep test was conducted to obtain transition glass (Tg) using fixed frequency of 1 Hz and fixed strain of 0.1% with temperature ramping from 25° C. to 90° C. The rheology data were shown as the average of three repeats for each data point.
In the FST, samples were measured over a range of oscillation frequencies (0.1-10 rad/s) at fixed strain, temperature, and oscillation amplitude. Higher frequencies simulate fast motion on a short time-scale, while low frequencies simulate slow motion on a long time-scale, or rest. All of the hydrogels made from the anthranilamide-based short cationic peptides, which passed the vial inversion test, were subjected to the FST using a rheometer to precisely assess their mechanical properties.

S. aureus 38 = test: Antibacterial activity of cationic hydrogels, viable count method; assay type: cell-based, Staphylococcus aureus; conditions: hydrogel at 1% w/v in contact with S. aureus, compared to control
Protocol: The antibacterial activity of the anthranilamide-based cationic hydrogels 11-13 and 15-19 was investigated in vitro against S. aureus. The antibacterial activity of anthranilamide-based cationic hydrogel 11 was also investigated in vitro against E. coli.
First, a single colony of S. aureus 38 or E. coli K12 was grown in Luria-Bertani (LB) broth medium at 37° C. overnight. The resulting bacteria were harvested, via centrifugation, to obtain a bacteria pellet which was re-suspended in the same volume of LB medium, twice. The optical density (OD) value of the resulting culture was adjusted to 0.1 at 600 nm in LB (10^8 cfu·mL^−1). This bacteria solution was then further adjusted to 3×10^4 cfu mL^−1. (CFU or cfu=colony-forming unit). Bacteria solutions (1 mL), which contain either 10^8 CFUs/mL or 3×10^4 CFUs/mL, were gently added to hydrogel 11 at 1% w/v with total volume of 1 mL. Anthranilamide-based cationic hydrogels 11-13 and 15-19 (1 mL) were prepared at 1% w/v in glass vials as described above. On top of these pre-formed hydrogels, 1 mL of bacteria solution was carefully cast. […] As a negative control, a bacterial solution in the absence of hydrogel was used. After being incubated at 37° C. for 18 hours, 100 μL of bacteria solution in each vial was taken and subjected to serial dilution using phosphate buffer solution (PBS). 20 μL of each dilution were carefully transferred into nutrient agar plates and incubated for another 18 hours. The following day, bacterial growth inhibition was quantified using the viable count method. The experiment was performed twice in triplicate and multiple sample comparison was performed using one-way ANOVA at p<0.05.

[4] = Strain sweep test (SST), linear viscoelastic region; assay type: physicochemical; conditions: hydrogels at 1% w/v, SST at 1 Hz, 0.1% to 100% strain
Protocol: as §8, §9
To observe the structural decay in anthranilamide-based cationic hydrogels, the SST was performed by imposing a non-linear strain. SST provides information about the viscoelastic properties of a hydrogel through determination of its linear viscoelastic region (LVER). […] Here, the LVER reported for each hydrogel represents the deviation of storage modulus (G′) from linearity, known as yield point (γy). Yield points have been reported to reflect a point where the rigidity of a hydrogel starts to weaken.

[5] = Atomic force microscopy (AFM) of fibers; assay type: physicochemical; conditions: for fiber bundle diameter: hydrogel after addition of salt, 4× below CGC; for fiber diameter: hydrogel, 4× below CGC (17 imaged at 0.10% w/v)
Protocol: Hydrogels of NO-releasing short peptide 4 (1 drop), at high pH, low pH, and after irradiation, were cast onto a mica substrate. Hydrogels of cationic short peptides 11-13 and 15-19 were prepared at their CGC, 2× below, and 4× below CGC in glass vials. Prior to gelation, one drop of the cationic short peptide solutions was cast onto a mica substrate. Using a glass slide, each droplet was carefully spread and was left to dry overnight before imaging. Imaging was performed using a Bruker Multimode 8 Atomic Force Microscope in Scanasyst Air (PeakForce Tappings) mode, which is based on tapping mode AFM. To prevent damage of soft samples, the imaging parameters were constantly optimized through the force curves that were collected. Bruker Scanasyst-Air probes were used, with a spring constant of 0.4-0.8 N·m^−1 and a tip radius of 2 nm.
To gain some insight on the mechanism of antibacterial action, the released solutions from hydrogel made of primary ammonium 11 were directly cast onto a mica substrate. […] After gently spreading using a glass slide and left to dry overnight, these samples were imaged using a similar manner as describe above.

[6] = Hydrogel formation, vial inversion test (critical gel concentration); assay type: physicochemical; set-up: key: VS: viscous solution; CG: clear gel; conditions: vial inversion test
Description: as §1, §2, §3, §4, §5, §6, §7

[7] = as above; assay type: physicochemical; set-up: key: OG: opaque gel; P: precipitate; conditions: cationic peptides 10-14; vial inversion test
Description: as §1, §2, §3, §4, §5, §6, §7

[8] = cationic peptides 15-19, heat and NaCl (18, 19: heat and NaCl)
[9] = hydrogels of cationic peptides 15-19
[10] = hydrogels of cationic peptides 10-14
[11] = cationic peptides 10-14, heat and NaCl (13: heat and NaCl)

Row | Compound | Remarks (gel state) [1] | CGC [2, 8] | pH [2, 9] | G′/G″ ratio ([3]; hydrogels 15-19 at 1% w/v) | G′ (modulus storage) ([3]; hydrogels 15-19 at 1% w/v) | G″ (modulus loss) ([3]; hydrogels 15-19 at 1% w/v) | bacterial reduction (S. aureus 38) | LVER (linear viscoelastic region) [4] | fiber bundle diameter [5] | Remarks (gel state) ([6]; cationic peptides 15-19) | fiber diameter [5] | pH [2, 10] | Remarks (gel state) ([2]; cationic peptides 15-19) | Remarks (gel state) ([2]; cationic peptides 10-14) | Remarks (gel state) ([6]; cationic peptides 10-14) | CGC [2, 11] | G′/G″ ratio ([3]; hydrogels 11-13 at 1% w/v) | G′ (modulus storage) ([3]; hydrogels 11-13 at 1% w/v) | G″ (modulus loss) ([3]; hydrogels 11-13 at 1% w/v) | Remarks (gel state) [7]
1 | CN(C)CCCNC(=O)[C@H](Cc1ccccc1)NC(=O)c1ccc(Cl)cc1NC(=O)c1ccc2ccccc2c1 [Compound 16] | OG | 0.2 % W/V | 5.5 | 10.6 | 0.53 kPa | 0.05 kPa | 5.0 Log10 | 1.66% and 1.66 ± 0.10% | 99±6 nm |  |  |  |  |  |  |  |  |  |  | 
2 | CN(C)CCCNC(=O)[C@H](Cc1ccccc1)NC(=O)c1ccc(F)cc1NC(=O)c1ccc2ccccc2c1 [Compound 15] | OG | 0. % W/V | 5.5 | 20 | 1.20 kPa | 0.06 kPa | 3.1 Log10 | 2.01% and 2.01 ± 0.06% | 115±10 nm |  |  |  |  |  |  |  |  |  |  | 
3 | CN(C)CCCNC(=O)[C@H](Cc1ccccc1)NC(=O)c1ccccc1NC(=O)c1ccc2ccccc2c1 [Compound 18, (S)-3-(2-(2-(2-naphthamido)benzamido)-3-phenylpropanamido)-N,N-dimethylpropan-1-aminium Ttrifluoroacetate] |  | 0.3 % W/V | 4 | 16.5 | 5.12 kPa | 0.31 kPa | 4.9 Log10 | 0.98 ± 0.02% |  | CG | 104±4 nm |  |  |  |  |  |  |  |  | 
4 | N=C(N)NCCCNC(=O)[C@H](Cc1ccccc1)NC(=O)c1ccccc1NC(=O)c1ccc2ccccc2c1 [Compound 14] |  |  |  |  |  |  |  |  |  |  |  | 6 |  |  |  |  |  |  |  | 
5 | CN(C)CCCNC(=O)[C@H](Cc1ccccc1)NC(=O)c1ccccc1NC(=O)c1ccc2ccccc2c1.Cl [Compound 19, (S)-3-(2-(2-(2-naphthamido)benzamido)-3-phenylpropanamido)-N,N-dimethylpropan-1-aminium Chloride] |  | 0.3 % W/V | 5 | 10.1 | 1.61 kPa | 0.16 kPa | 3.0 Log10 | 1.00 ± 0.01% |  | CG | 87±6 nm |  |  |  |  |  |  |  |  | 
6 | CN(C)CCCNC(=O)[C@H](Cc1ccccc1)NC(=O)c1ccc(Br)cc1NC(=O)c1ccc2ccccc2c1 [Compound 17] |  |  | 5.5 | 4.0 | 0.08 kPa | 0.02 kPa |  | 0.16% and 0.16 ± 0.01% |  |  | 101±6 nm |  | OG → PG |  |  |  |  |  |  | 
7 | NCCNC(=O)[C@H](Cc1ccccc1)NC(=O)c1ccccc1NC(=O)c1ccc2ccccc2c1 [Compound 10] |  |  |  |  |  |  |  |  |  |  |  | 5.5 |  | CG → PG |  |  |  |  |  | 
8 | CN(C)CCCNC(=O)[C@H](Cc1ccccc1)NC(=O)c1ccccc1NC(=O)c1ccc2ccccc2c1 [Compound 12] |  |  |  |  |  |  | 5.1 Log10 | 0.98 ± 0.02% | 139±10 nm |  |  | 5.5 |  |  | CG | 0.3 % w/v | 15.7 | 8.63 kPa | 0.55 kPa | 
9 | C[N+](C)(C)CCCNC(=O)[C@H](Cc1ccccc1)NC(=O)c1ccccc1NC(=O)c1ccc2ccccc2c1.[I-] [Compound 13, (S)-3-(2-(2-(2-naphthamido)benzamido)-3-phenylpropanamido)-N,N,N-trimethylpropan-1-aminium iodide] |  |  |  |  |  |  | 4.1 Log10 | 1.10 ± 0.04% | 148±16 nm |  |  | 6 |  |  |  | 0.2 % w/v | 10.9 | 2.28 kPa | 0.21 kPa | OG
